Consider 71 compounds from ChEMBL document CHEMBL3751781, “Three-dimensional QSAR analysis and design of new 1,2,4-oxadiazole antibacterials” (2016).

≈ marks a conversion by molar mass, not a printed value.

The experiment deals with Staphylococcus aureus. The experiment in a line: Antibacterial against Staphylococcus aureus. In kind it is functional. The settings on record: for MIC: Staphylococcus aureus.

What is called MIC is the lowest concentration found to suppress growth. Low values mean inhibition by little substance, high ones a need for much substance.

On to `Oc1ccc(-c2nc(-c3ccc(Oc4ccc(C(F)(F)F)cc4)cc3)no2)cc1`, for which the “-logMIC” value was 5.987.
On the same count and under the same terms, to `Nc1ccc(-c2nc(-c3ccc(Oc4ccccc4)cc3)no2)cc1` belongs 4.411.
With `Nc1ccc(-c2nc(-c3ccc(Oc4ccc(C(F)(F)F)cc4)cc3)no2)cc1`, the “-logMIC” value is recorded as 5.985.
Still for that read-out and setting: for `FC(F)(F)c1ccc(Oc2ccc(-c3noc(-c4n[nH]cc4Cl)n3)cc2)cc1` the value was 6.008; for `Brc1c[nH]nc1-c1nc(-c2ccc(Oc3ccccc3)cc2)no1`, 5.949.
On the same count and under the same terms, for `FC(F)(F)c1ccc(Oc2ccc(-c3noc(-c4n[nH]cc4Br)n3)cc2)cc1` the value was 6.11; for `Ic1c[nH]nc1-c1nc(-c2ccc(Oc3ccccc3)cc2)no1`, 6.064.
Same read-out and setting: for `FC(F)(F)c1ccc(Oc2ccc(-c3noc(-c4n[nH]cc4I)n3)cc2)cc1` the value was 5.518; for `O=[N+]([O-])c1c[nH]nc1-c1nc(-c2ccc(Oc3ccccc3)cc2)no1`, 5.163; for `O=[N+]([O-])c1c[nH]nc1-c1nc(-c2ccc(Oc3ccc(C(F)(F)F)cc3)cc2)no1`, 5.341.
With `O=[N+]([O-])c1c[nH]nc1-c1nc(-c2ccc(Oc3ccc(F)cc3)cc2)no1`, the “-logMIC” value amounted to 5.906.
Still for that read-out and setting: for `Oc1ccc(-c2nc(-c3ccc(Oc4ccccc4)cc3)no2)cc1F` the value was 4.467; for `Oc1ccc(-c2nc(-c3ccc(Oc4ccc(C(F)(F)F)cc4)cc3)no2)cc1F`, 5.338; for `Oc1ccc(-c2nc(-c3ccc(Oc4ccc(F)cc4)cc3)no2)cc1F`, 5.21.
On to `Oc1c(F)cc(-c2nc(-c3ccc(Oc4ccc(F)cc4)cc3)no2)cc1F`, for which the “-logMIC” value amounted to 3.872.
As for `Nc1ccc(-c2nc(-c3ccc(Oc4ccc(C(F)(F)F)cc4)cc3)no2)cc1F`, the “-logMIC” value was determined as 5.336.
On the same count and under the same terms, to `Nc1c(F)cc(-c2nc(-c3ccc(Oc4ccccc4)cc3)no2)cc1F` belongs 3.821.
As to `Nc1c(F)cc(-c2nc(-c3ccc(Oc4ccc(C(F)(F)F)cc4)cc3)no2)cc1F`, the “-logMIC” value amounted to 5.378 and inhibition of growth (MIC) required 2 µg/mL (≈ 4.62 µM).
In the same order, the values of `c1ccc(Oc2ccc(-c3noc(-c4ccc5[nH]ccc5c4)n3)cc2)cc1` are 5.174 and 4 µg/mL (≈ 11.3 µM).
On to `FC(F)(F)c1ccc(Oc2ccc(-c3noc(-c4ccc5[nH]ccc5c4)n3)cc2)cc1`, for which the “-logMIC” value came out at 4.657.
Regarding `Fc1ccc(Oc2ccc(-c3noc(-c4ccc5[nH]ccc5c4)n3)cc2)cc1`, the “-logMIC” value is reported as 5.224 and the MIC is 2 µg/mL (≈ 5.39 µM).
Turning to `O=[N+]([O-])c1cc(-c2nc(-c3ccc(Oc4ccc(C(F)(F)F)cc4)cc3)no2)cnc1O`, the “-logMIC” value came to 4.017.
Same read-out and setting: for `O=[N+]([O-])c1cc(-c2nc(-c3ccc(Oc4ccc(F)cc4)cc3)no2)cnc1O` the value was 3.898.
On to `Fc1ccc(-c2nc(-c3ccc(Oc4ccccc4)cc3)no2)cc1`, for which the “-logMIC” value worked out at 0.954 and the MIC was found to be 128 µg/mL (≈ 385 µM).
For `O=[N+]([O-])c1ccc(-c2nc(-c3ccc(Oc4ccccc4)cc3)no2)cc1` the same measures were 1.032 and 128 µg/mL (≈ 356 µM).
In the same order, the values of `O=P(O)(O)c1ccc(-c2nc(-c3ccc(Oc4ccc(F)cc4)cc3)no2)cc1` are 1.17 and 128 µg/mL (≈ 310 µM).
For `CS(=O)(=O)Nc1ccc(-c2nc(-c3ccc(Oc4ccc(C(F)(F)F)cc4)cc3)no2)cc1` the same measures were 1.312 and 128 µg/mL (≈ 269 µM).
Turning to `NS(=O)(=O)c1ccc(-c2nc(-c3ccc(Oc4ccc(C(F)(F)F)cc4)cc3)no2)cc1`, the “-logMIC” value is listed as 1.282 and it took 128 µg/mL (≈ 277 µM) to inhibit growth (MIC).
Regarding `NS(=O)(=O)c1ccc(-c2nc(-c3ccc(Oc4ccc(F)cc4)cc3)no2)cc1`, the “-logMIC” value amounted to 1.168 and 128 µg/mL (≈ 311 µM) was the least that counted as inhibitory (MIC).
For `O=C(O)c1ccc(-c2nc(-c3ccc(Oc4ccc(F)cc4)cc3)no2)cc1` the same measures were 1.079 and 128 µg/mL (≈ 340 µM).
In the case of `COC(=O)c1ccc(-c2nc(-c3ccc(Oc4ccc(F)cc4)cc3)no2)cc1`, the “-logMIC” value stood at 1.115 and inhibition of growth (MIC) required 128 µg/mL (≈ 328 µM).
For `COc1ccc(-c2nc(-c3ccc(Oc4ccccc4)cc3)no2)cc1[N+](=O)[O-]` the same measures were 1.113 and 128 µg/mL (≈ 329 µM).
In the same order, the values of `COc1ccc(-c2nc(-c3ccc(Oc4ccc(F)cc4)cc3)no2)cc1[N+](=O)[O-]` are 1.158 and 128 µg/mL (≈ 314 µM).
In the same order, the values of `COc1ccc(-c2nc(-c3ccc(Oc4ccc(F)cc4)cc3)no2)cc1OC` are 1.12 and 128 µg/mL (≈ 326 µM).
As for `FC(F)(F)c1ccc(Oc2ccc(-c3noc(-c4cc[nH]n4)n3)cc2)cc1`, the “-logMIC” value was determined as 0.923 and the MIC is 128 µg/mL (≈ 344 µM).
Take `Nc1c[nH]nc1-c1nc(-c2ccc(Oc3ccc(F)cc3)cc2)no1`: the “-logMIC” value turned out to be 3.048.
Take `CCCCNc1c[nH]nc1-c1nc(-c2ccc(Oc3ccc(C(F)(F)F)cc3)cc2)no1`: the “-logMIC” value was 1.243 and 128 µg/mL (≈ 289 µM) was the least that counted as inhibitory (MIC).
In the same order, the values of `FC(F)(F)c1ccc(Oc2ccc(-c3noc(-c4n[nH]cc4NC4CCCCC4)n3)cc2)cc1` are 1.3 and 128 µg/mL (≈ 273 µM).
For `O=C(Nc1c[nH]nc1-c1nc(-c2ccc(Oc3ccc(C(F)(F)F)cc3)cc2)no1)c1ccccc1` the same measures were 1.345 and 128 µg/mL (≈ 260 µM).
For the compound `O=C(Nc1c[nH]nc1-c1nc(-c2ccc(Oc3ccc(C(F)(F)F)cc3)cc2)no1)c1ccccn1`, the “-logMIC” value stood at 1.347 and the minimal inhibitory concentration (MIC) turned out to be 128 µg/mL (≈ 260 µM).
Turning to `Nc1cc(-c2nc(-c3ccc(Oc4ccc(F)cc4)cc3)no2)cnc1O`, the “-logMIC” value is reported as 1.046 and the MIC is 128 µg/mL (≈ 351 µM).
For `Fc1ccc(Oc2ccc(-c3noc(-c4c[nH]c5ncccc45)n3)cc2)cc1` the same measures were 1.068 and 128 µg/mL (≈ 344 µM).
In the same order, the values of `O=[N+]([O-])c1c[nH]c(-c2nc(-c3ccc(Oc4ccc(F)cc4)cc3)no2)c1` are 1.052 and 128 µg/mL (≈ 349 µM).
As to `Nc1c[nH]c(-c2nc(-c3ccc(Oc4ccc(F)cc4)cc3)no2)c1`, the “-logMIC” value is given as 0.966 and the lowest concentration to inhibit growth (MIC) was 128 µg/mL (≈ 381 µM).
In the same order, the values of `Oc1ccc(-c2nc(-c3ccc(Oc4ccccc4)c(F)c3)no2)cc1` are 3.774 and 8 µg/mL (≈ 23 µM).
With `O=C(c1cccc(Oc2ccc(-c3noc(-c4ccc(O)cc4)n3)cc2)c1)C(F)(F)F`, the “-logMIC” value is listed as 4.669 and the minimal inhibitory concentration (MIC) came to 4 µg/mL (≈ 9.38 µM).
For `O=[N+]([O-])c1c(F)cc(-c2nc(-c3ccc(Oc4ccccc4)cc3)no2)cc1F` the same measures were 1.128 and 128 µg/mL (≈ 324 µM).
In the case of `O=[N+]([O-])c1ccccc1Oc1ccc(-c2noc(-c3ccc(O)cc3)n2)cc1`, the “-logMIC” value was 4.542 and the minimum inhibitory concentration (MIC) stood at 4 µg/mL (≈ 10.7 µM).
For `Clc1c[nH]nc1-c1nc(-c2ccc(Oc3ccc(I)cc3)cc2)no1`, the “-logMIC” value was determined as 6.141 and it took 1 µg/mL (≈ 2.15 µM) to inhibit growth (MIC).
For the compound `Oc1ccc(-c2nc(-c3ccc(Oc4ccc(Br)cc4)cc3)no2)cc1`, the “-logMIC” value was 5.321 and the MIC turned out to be 2 µg/mL (≈ 4.89 µM).
For `Fc1ccc(Oc2ccc(-c3noc(-c4n[nH]cc4Cl)n3)cc2)cc1F` the same measures were 6.619 and 0.5 µg/mL (≈ 1.33 µM).
In the same order, the values of `O=[N+]([O-])c1c[nH]nc1-c1nc(-c2ccc(Oc3ccc(I)cc3)cc2)no1` are 4.084 and 8 µg/mL (≈ 16.8 µM).
For `Oc1ccc(-c2nc(-c3ccc(Oc4cccc(CBr)c4)cc3)no2)cc1` the same measures were 4.662 and 4 µg/mL (≈ 9.45 µM).
Regarding `Nc1c[nH]nc1-c1nc(-c2ccc(Oc3ccc(F)c(F)c3)cc2)no1`, the “-logMIC” value is on record as 3.794 and the MIC amounted to 8 µg/mL (≈ 22.5 µM).
`O=[N+]([O-])c1ccc(-c2nc(-c3ccc(Oc4ccccc4)cc3)no2)cc1F`: the “-logMIC” value is on record as 1.081 and inhibition of growth (MIC) required 128 µg/mL (≈ 339 µM).
For `O=[N+]([O-])c1c(F)cc(-c2nc(-c3ccc(Oc4ccc(C(F)(F)F)cc4)cc3)no2)cc1F` the same measures were 1.286 and 128 µg/mL (≈ 276 µM).
`Oc1ccc(-c2nc(-c3ccc(F)cc3)no2)cc1`: the “-logMIC” value is given as 0.694 and the MIC was found to be 128 µg/mL (≈ 500 µM).
For `[N-]=[N+]=Nc1ccc(Oc2ccc(-c3noc(-c4ccc(O)cc4)n3)cc2)cc1` the same measures were 5.224 and 2 µg/mL (≈ 5.39 µM).
With `Oc1ccc(-c2nc(-c3ccc(Oc4ccc(CBr)cc4)cc3)no2)cc1`, the “-logMIC” value was 1.196 and the minimum inhibitory concentration (MIC) amounted to 128 µg/mL (≈ 302 µM).
For `[N-]=[N+]=Nc1cc(-c2noc(-c3ccc(O)cc3)n2)ccc1Oc1ccccc1` the same measures were 5.224 and 2 µg/mL (≈ 5.39 µM).
For `Oc1ccc(-c2noc(-c3ccc(O)cc3)n2)cc1` the same measures were 0.686 and 128 µg/mL (≈ 503 µM).
For `COc1ccc(Oc2ccc(-c3noc(-c4ccc(O)cc4)n3)cc2)cc1` the same measures were 5.194 and 2 µg/mL (≈ 5.55 µM).
As to `CC(=O)N(C(C)=O)c1c[nH]nc1-c1nc(-c2ccc(Oc3ccc(C(F)(F)F)cc3)cc2)no1`, the “-logMIC” value was found to be 1.304 and the MIC stood at 128 µg/mL (≈ 272 µM).
In the same order, the values of `CCC(C)Nc1c[nH]nc1-c1nc(-c2ccc(Oc3ccc(C(F)(F)F)cc3)cc2)no1` (stereo unspecified) are 1.243 and 128 µg/mL (≈ 289 µM).
In the same order, the values of `Oc1ccc(-c2nc(-c3ccc(Oc4cccc(Br)c4)cc3)no2)cc1` are 4.628 and 4 µg/mL (≈ 9.77 µM).
For `O=[N+]([O-])c1cc(-c2noc(-c3ccc(O)cc3)n2)ccc1Oc1ccccc1` the same measures were 3.848 and 8 µg/mL (≈ 21.3 µM).
Consider `Fc1ccc(Oc2ccc(-c3noc(-c4n[nH]cc4Cl)n3)cc2)cc1Cl`, for which the “-logMIC” value is 5.276 and it took 2 µg/mL (≈ 5.11 µM) to inhibit growth (MIC).
For `O=P(O)(O)Oc1ccc(Oc2ccc(-c3noc(-c4ccc(F)cc4)n3)cc2)cc1` the same measures were 1.208 and 128 µg/mL (≈ 299 µM).
On to `O=C1COc2cc(-c3nc(-c4ccc(Oc5ccccc5)cc4)no3)ccc2N1`, for which the “-logMIC” value is 1.102 and the MIC came out at 128 µg/mL (≈ 332 µM).
In the same order, the values of `Fc1ccc(Oc2ccc(-c3noc(-c4n[nH]cc4Br)n3)cc2)cc1F` are 6.038 and 1 µg/mL (≈ 2.39 µM).
With `O=C(O)c1ccc(Oc2ccc(-c3noc(-c4ccc(O)cc4)n3)cc2)cc1`, the “-logMIC” value was found to be 1.766 and the minimum inhibitory concentration (MIC) was 64 µg/mL (≈ 171 µM).
